According to patent EP3682883A1, “QUINOLINE DERIVATIVE FOR TREATMENT OF NEUROENDOCRINE TUMORS” (Chia Tai Tianqing Pharmaceutical Group Co., Ltd., priority 2017, dated 2019):

Assays:
Assay type in all cases: in vivo, human
[1] = test system: retroperitoneal neuroendocrine tumor; test: Clinical case Example 5: treatment of a patient, CT scan of target lesions; details: prior therapy in patient history
[2] = test system: neuroendocrine tumor which tend to be atypical carcinoid; test: Clinical case Example 4: treatment of a patient, CT scan of target lesions; details: prior therapy in patient history; 4 mg once a month; after two cycles
Protocol: A patient was diagnosed with neuroendocrine tumor which tend to be atypical carcinoid after a chest tumor puncture by pathology exam, then the patient was treated with chemotherapy of paclitaxel, etoposide and cisplatin for three cycles, a CT scan was performed after the treatment, efficacy of the therapy was evaluated as SD, followed by Right anterior mediastinal mass resection and partial right upper lobe resection. […] Local chest radiotherapy was performed in the first to second month after operation, and evaluated as SD after the treatment, during which III° radiation esophagitis occurred. […] Temozolomide and capecitabine was then given for 2 cycles from the 23rd month to 25th month after operation, and efficacy was evaluated as SD (large), during this period, pain in both lower extremities occurred, and even got worse. Then 4 mg of zoledronic acid was given once a month, the efficacy was evaluated as PD by CT scan after two cycles of the treatment, followingly, Shanlong (octreotide acetate microspheres for injection) was given for 1 cycle, the efficacy was evaluated as PD by CT scan which was performed after 27 months postoperatively, and the sum of the target lesion diameters was 179 mm. […]

[3] = test system: ampullary neuroendocrine tumor; test: Clinical case Example 10: treatment of a patient, CT scan of metastatic lesions; details: prior therapy in patient history; 10mg qd orally; CT and MRI on May 25, 2018
From the text: A patient, underwent a laparotomy on August 18, 2016, the gallbladder, distal part of the stomach, duodenum, and part of the pancreas were removed. […] The patient was diagnosed with ampullary neuroendocrine tumor (high proliferative activity, mitotic count, […]) on November 4, 2016, which was located in the ampulla, the common bile duct, duodenal papilla and major pancreatic duct were invaded, intravascular tumor thrombus was visible and pancreatic tissue was also invaded, immunohistochemistry: AFP (-).
10mg of everolimus (qd) was administered orally from February 7 to May 25, 2018, and the efficacy was evaluated as SD on March 29, 2018.
A daily dose of 12 mg of dihydrochloride of Compound I capsule was given once a day from July 4, 2018 (two-week administration period and one-week withdrawal period, i.e. three weeks as one treatment cycle).

With `CCN(CC)CCNC(=O)c1c(C)[nH]c(/C=C2\C(=O)Nc3ccc(F)cc32)c1C` [sunitinib malate] the “efficacy evaluated (prior therapy)” value ([1]; after Saisheng and thymosin) was “PD (the sum of the diameters of target lesions of tumor increased by more than 20% from the baseline level)”.

thymosin was tested, and the “reexamination (prior therapy)” value ([1]; Saisheng and thymosin given together) was “no response”.

In the case of `O=P(O)(O)C(O)(Cn1ccnc1)P(=O)(O)O` [zoledronic acid], the “efficacy evaluated by CT scan (prior therapy)” value [2] is reported as “PD (the sum of the diameters of target lesions of tumor increased by more than 20% from the baseline level)”.

For `CO[C@H]1C[C@@H]2CC[C@@H](C)[C@@](O)(O2)C(=O)C(=O)N2CCCC[C@H]2C(=O)O[C@H]([C@H](C)C[C@@H]2CC[C@@H](OCCO)[C@H](OC)C2)CC(=O)[C@H](C)/C=C(\C)[C@@H](O)[C@@H](OC)C(=O)[C@H](C)C[C@H](C)/C=C/C=C/C=C/1C` [everolimus], the “CT and MRI result (prior therapy)” value [3] was “the disease progressed”.
